According to article PMC12607891, “A broadly conserved fungal chorismate mutase targets the plant shikimate pathway to regulate salicylic acid production and other secondary metabolites” (mBio, 2025):

Experiments:
[1] = molecular target: T1, SsCM1 ΔSP/cTP1-66 (Sclerotinia sclerotiorum, UniProt A7F9N9); test: HPLC of salicylic acid made in E. coli KRX expressing the protein; assay type: cell-based; settings: endogenous isochorismate of E. coli; 24 °C overnight, IPTG and rhamnose induction; isochorismate pyruvate lyase activity
T1 construct: gene SS1G_14320; residues 1-66 (signal peptide and chloroplast targeting peptide) removed; codon-optimized, pET28a, in E. coli KRX cells

[2] = molecular target: T2, AtCM1 (Arabidopsis thaliana, UniProt P42738); test: absorbance at […] nm, prephenate converted to phenylpyruvate; assay type: biochemical; settings: chorismate mutase activity assay; conditions as in cited procedure
T2 construct: gene CM1; His-tagged, pET, E. coli BL21, Ni-NTA
T2 sequence (P42738 66-340): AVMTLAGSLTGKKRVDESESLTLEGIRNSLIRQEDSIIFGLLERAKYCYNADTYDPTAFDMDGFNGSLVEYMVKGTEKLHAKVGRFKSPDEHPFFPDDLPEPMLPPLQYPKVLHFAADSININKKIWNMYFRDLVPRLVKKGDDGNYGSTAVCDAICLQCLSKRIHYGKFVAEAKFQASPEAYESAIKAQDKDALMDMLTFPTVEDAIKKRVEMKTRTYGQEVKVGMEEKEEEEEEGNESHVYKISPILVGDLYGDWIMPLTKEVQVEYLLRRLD

[3] = molecular target: T3, AtCM2 (Arabidopsis thaliana, UniProt Q9S7H4); test: as above; assay type: biochemical; settings: chorismate mutase activity assay; conditions as in cited procedure
T3 construct: gene CM2; His-tagged, pET, E. coli BL21, Ni-NTA; cytosolic enzyme
T3 sequence (Q9S7H4 1-265): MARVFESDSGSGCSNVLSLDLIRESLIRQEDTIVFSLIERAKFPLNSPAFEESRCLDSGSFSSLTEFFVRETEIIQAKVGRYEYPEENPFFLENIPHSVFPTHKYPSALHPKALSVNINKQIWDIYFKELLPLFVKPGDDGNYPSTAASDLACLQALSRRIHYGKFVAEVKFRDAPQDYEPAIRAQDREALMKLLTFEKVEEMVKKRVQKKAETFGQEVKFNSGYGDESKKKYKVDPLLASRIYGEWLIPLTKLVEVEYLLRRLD

[4] = molecular target: T4, Cmu1 (Mycosarcoma maydis, UniProt A0A0D1DWQ2); test: as above; assay type: biochemical; settings: weak chorismate mutase activity assay; conditions as in cited procedure
T4 construct: His-tagged, pET, E. coli BL21, Ni-NTA

[5] = molecular target: T5, AtCM3 (Arabidopsis thaliana, UniProt Q9C544); test: as above; assay type: biochemical; settings: chorismate mutase activity assay; conditions as in cited procedure
T5 construct: gene CM3; His-tagged, pET, E. coli BL21, Ni-NTA
T5 sequence (Q9C544 48-316): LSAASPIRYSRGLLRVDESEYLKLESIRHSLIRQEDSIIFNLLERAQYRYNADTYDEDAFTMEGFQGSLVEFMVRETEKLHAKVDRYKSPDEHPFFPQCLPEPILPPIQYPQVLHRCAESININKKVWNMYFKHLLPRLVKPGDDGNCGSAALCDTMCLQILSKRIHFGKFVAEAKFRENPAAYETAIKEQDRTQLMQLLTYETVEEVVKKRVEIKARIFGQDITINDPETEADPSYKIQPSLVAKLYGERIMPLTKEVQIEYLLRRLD

[6] = molecular target: T6, SsCM1 (Sclerotinia sclerotiorum, UniProt A7F9N9); test: as above; assay type: biochemical; settings: weak chorismate mutase activity assay; conditions as in cited procedure
T6 construct: gene SS1G_14320; His-tagged, pET, E. coli BL21, Ni-NTA
T6 sequence (A7F9N9 entry or part of it): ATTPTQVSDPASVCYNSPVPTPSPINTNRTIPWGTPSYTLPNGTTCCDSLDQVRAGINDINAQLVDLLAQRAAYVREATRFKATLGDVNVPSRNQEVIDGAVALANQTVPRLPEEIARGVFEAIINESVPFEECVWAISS

T4 sequence (A0A0D1DWQ2 22-290): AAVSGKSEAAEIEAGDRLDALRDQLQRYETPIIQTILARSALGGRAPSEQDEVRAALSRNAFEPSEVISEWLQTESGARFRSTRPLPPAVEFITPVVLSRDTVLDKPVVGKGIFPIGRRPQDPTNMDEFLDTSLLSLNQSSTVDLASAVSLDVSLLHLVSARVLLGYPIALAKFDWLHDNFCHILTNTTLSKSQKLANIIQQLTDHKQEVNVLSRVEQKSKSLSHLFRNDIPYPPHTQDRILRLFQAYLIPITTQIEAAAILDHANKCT
T1 sequence (A7F9N9 entry or part of it, stated change not applied): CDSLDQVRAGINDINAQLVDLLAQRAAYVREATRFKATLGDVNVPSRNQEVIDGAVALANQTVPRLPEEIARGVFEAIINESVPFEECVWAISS

Row | Structure (SMILES) | HPLC of salicylic acid made in E. coli KRX expressing the protein [1] | absorbance at 320 nm, prephenate converted to phenylpyruvate [2] | absorbance at 320 nm, prephenate converted to phenylpyruvate [3] | absorbance at 320 nm, prephenate converted to phenylpyruvate [4] | absorbance at 320 nm, prephenate converted to phenylpyruvate [5] | absorbance at 320 nm, prephenate converted to phenylpyruvate [6]
1 | C=C(O[C@H]1C=CC=C(C(=O)O)[C@@H]1O)C(=O)O [isochorismate] | SsCM1 possesses some IPL activity when expressed in E. coli |  |  |  |  | 
2 | C=C(O[C@@H]1C=C(C(=O)O)C=C[C@H]1O)C(=O)O [chorismate] |  | all tested chorismate mutases are able to convert chorismate into prephenate | all tested chorismate mutases are able to convert chorismate into prephenate | all tested chorismate mutases are able to convert chorismate into prephenate | all tested chorismate mutases are able to convert chorismate into prephenate | all tested chorismate mutases are able to convert chorismate into prephenate
